{"source": "patent US6458813B1", "about": "“Substituted pyridine compounds and methods of use” (Amgen Inc., priority 1997, dated 2002)", "note": "pIC50: −log10 of the molar value."}
{"test_system": "production of tumor necrosis factor (TNF) by monocytes activated with bacterial lipopolysaccharide (LPS)", "assay": "Lipopolysaccharide-activated monocyte TNF production assay", "format": "cell-based", "settings": "Homo sapiens, adherent monocytes from PBMCs, 60 min with compound, then LPS 4 hrs, TNF in supernatants by ELISA, read-out: IC50 (concentration of test compounds causing a 50% reduction in TNF production)", "procedure": "Lipopolysaccharide-activated monocyte TNF production assay\nTest compounds were evaluated in vitro for the ability to inhibit the production of tumor necrosis factor (TNF) by monocytes activated with bacterial lipopolysaccharide (LPS). Fresh residual source leukocytes (a byproduct of plateletpheresis) were obtained from a local blood bank, and peripheral blood mononuclear cells (PBMCs) were isolated by density gradient centrifugation on Ficol-Paque Plus (Pharmacia). PBMCs were suspended at 2×10^6/ml in DMEM supplemented to contain 2% FCS, 10 mM, 0.3 mg/ml […], 100 U/ml penicillin G and […] streptomycin sulfate (complete media). Cells were plated into Falcon flat bottom, 96 well culture plates (200 μl/well) and cultured overnight at 37° C. and 6% CO2. Non-adherent cells were removed by washing with 200 μl/well of fresh medium. Wells containing adherent cells (˜70% monocytes) were replenished with 100 μl of fresh medium.\nPreparation of test compound stock solutions\nTest compounds were dissolved in DMSO. Compound stock solutions were prepared to an initial concentration of […]. Stocks were diluted initially to 20-200 μM in complete media. Nine two-fold serial dilutions of each compound were then prepared in complete medium.\nTreatment of cells with test compounds and activation of TNF production with lipopolysaccharide\nOne hundred microliters of each test compound dilution were added to microtiter wells containing adherent monocytes and 100 μl complete medium. Monocytes were cultured with test compounds for 60 min at which time 25 μl of complete medium containing 30 ng/ml lipopolysaccharide from E. coli K532 were added to each well. Cells were cultured an additional 4 hrs. Culture supernatants were then removed and TNF presence in the supernatants was quantified using an ELISA.\nFlat bottom, 96 well Corning High Binding ELISA plates were coated overnight (4° C.) with 150 μL/well of 3 μg/ml murine anti-human TNF-α MAb (R&D Systems #MAB210). Wells were then blocked for 1 hr at room temperature with 200 μL/well of CaCl2-free ELISA buffer supplemented to contain 20 mg/ml BSA (standard ELISA buffer: […], 150 mM NaCl, 2 mM CaCl2, 0.15 mM thimerosal, pH 7.4). Plates were washed and replenished with 100 μl of test supernatants (diluted 1:3) or standards. Standards consisted of eleven 1.5-fold serial dilutions from a stock of 1 ng/ml recombinant human TNF (R&D Systems). Plates were incubated at room temperature for 1 hr on orbital shaker (300 rpm), washed and replenished with 100 μl/well of 0.5 μg/ml goat anti-human TNF-α (R&D systems #AB-210-NA) biotinylated at a 4:1 ratio. Plates were incubated for 40 min, washed and replenished with 100 μl/well of alkaline phosphatase-conjugated streptavidin (Jackson ImmunoResearch #016-050-084) at 0.02 μg/ml. Plates were incubated 30 min, washed and replenished with 200 μl/well of 1 mg/ml of p-nitrophenyl phosphate. After 30 min, plates were read at 405 nm on a Vmax plate reader.\nStandard curve data were fit to a second order polynomial and unknown TNF-α concentrations determined from their OD by solving this equation for concentration. TNF concentrations were then plotted vs. test compound concentration using a second order polynomial. This equation was then used to calculate the concentration of test compounds causing a 50% reduction in TNF production."}
{"compound": "O=C(Nc1ccc(Oc2cccc3ccccc23)nc1)c1c(Cl)cccc1Cl", "note": "[2-(1-naphthyloxy)-5-(2,6-dichlorophenylcarbonylamino) pyridine]", "pIC50": "> 4.82"}
{"compound": "Cc1ccc(Oc2ccc(NC(=O)c3c(C)cccc3C)cn2)c(C)c1", "note": "[2-(2,4-dimethylphenoxy)-5-(2,6-dimethylphenylcarbonylamino)pyridine]", "pIC50": "> 4.82"}
{"compound": "Cc1ccc(Oc2ccc(NC(=O)c3ccccc3C)cn2)c(C)c1", "note": "[2-(2,4-dimethylphenoxy)-5-(2-methylphenylcarbonylamino) pyridine]", "pIC50": "> 4.82"}
{"compound": "Cc1ncccc1Oc1ccc(NC(=O)c2c(Cl)cccc2Cl)cn1", "note": "[2-(2-methyl-3-pyridyloxy)-5-(2,6-dichlorophenylcarbonylamino)pyridine]", "pIC50": "> 4.82"}
{"compound": "Cc1cc(Cl)ccc1Oc1ccc(NC(=O)c2c(Cl)cccc2Cl)cn1", "note": "[2-(2-methyl-4-chlorophenoxy)-5-(2,6-dichlorophenylcarbonylamino)pyridine]", "pIC50": "> 4.82"}
{"compound": "Cc1cc(Cl)ccc1Oc1ccc(NC(=O)c2c(C)cccc2C)cn1", "note": "[2-(2-methyl-4-chlorophenoxy)-5-(2,6-dimethylphenylcarbonylamino)pyridine]", "pIC50": "> 4.82"}
{"compound": "Cc1cc(Cl)ccc1Oc1ccc(NC(=O)c2ccccc2Cl)cn1", "note": "[2-(2-methyl-4-chlorophenoxy)-5-(2-chlorophenylcarbonylamino)pyridine]", "pIC50": "> 4.82"}
{"compound": "Cc1cc(Cl)ccc1Oc1ccc(NC(=O)c2c(C)noc2C)cn1", "note": "[2-(2-methyl-4-chlorophenoxy)-5-((3,5-dimethyl-4-isoxazolyl)carbonylamino)pyridine]", "pIC50": "> 4.82"}
{"compound": "Cc1ccccc1NC(=O)c1ccc(Nc2ccc(Cl)cc2C)nc1", "note": "[2-(2-methyl-4-chlorophenylamino)-5-(2-methylphenylaminocarbonyl)pyridine]", "pIC50": "> 4.82"}
{"compound": "Cc1cc(Cl)ccc1Nc1ccc(NC(=O)c2ccccc2C)cn1", "note": "[2-(2-methyl-4-chlorophenylamino)-5-(2-methylphenylcarbonylamino)pyridine]", "pIC50": "> 4.82"}
{"compound": "Cc1cc(F)ccc1Oc1ccc(NC(=O)c2c(Cl)cccc2Cl)cn1", "note": "[2-(2-methyl-4-fluorophenoxy)-5-(2,6-dichlorophenylcarbonylamino)pyridine]", "pIC50": "> 4.82"}
{"compound": "Cc1cc(F)ccc1Oc1ccc(NC(=O)c2c(C)cccc2C)cn1", "note": "[2-(2-methyl-4-fluorophenoxy)-5-(2,6-dimethylphenylcarbonylamino)pyridine]", "pIC50": "> 4.82"}
{"compound": "Cc1cc(F)ccc1Oc1ccc(NC(=O)c2ccccc2F)cn1", "note": "[2-(2-methyl-4-fluorophenoxy)-5-(2-fluorophenylcarbonylamino)pyridine]", "pIC50": "> 4.82"}
{"compound": "Cc1cc(F)ccc1Oc1ccc(NC(=O)c2ccccc2C)cn1", "note": "[2-(2-methyl-4-fluorophenoxy)-5-(2-methylphenylcarbonylamino)pyridine]", "pIC50": "> 4.82"}
{"compound": "CC1CCCCC1Nc1ccc(NC(=O)c2c(Cl)cccc2Cl)cn1", "note": "(centres unmarked) [2-(2-methylcyclohexylamino)-5-(2,6-dichlorophenylcarbonylamino)pyridine]", "pIC50": "> 4.82"}
{"compound": "Cc1ccccc1C(=O)Nc1ccc(NC2CCCCC2C)nc1", "note": "(centres unmarked) [2-(2-methylcyclohexylamino)-5-(2-methylphenylcarbonylamino)pyridine]", "pIC50": "> 4.82"}
{"compound": "Cc1ccccc1Nc1ccc(NC(=O)c2c(C)cccc2C)cn1", "note": "[2-(2-methylphenylamino)-5-(2,6-dimethylphenylcarbonylamino)pyridine]", "pIC50": "> 4.82"}
{"compound": "Cc1ccccc1Nc1ccc(NC(=O)c2ccccc2C)cn1", "note": "[2-(2-methylphenylamino)-5-(2-methylphenylcarbonylamino)pyridine]", "pIC50": "> 4.82"}
{"compound": "Cc1cccc(C)c1C(=O)Nc1ccc(Oc2ccc(Cl)cc2)nc1", "note": "[2-(4-chlorophenoxy)-5-(2,6-dimethylphenylcarbonylamino) pyridine]", "pIC50": "> 4.82"}
{"compound": "O=C(Nc1ccc(NC2CCCCC2)nc1)c1c(Cl)cccc1Cl", "note": "[2-cyclohexylamino-5-(2,6-dichlorophenylcarbonylamino) pyridine]", "pIC50": "> 4.82"}
{"compound": "Cc1cccc(C)c1C(=O)Nc1ccc(NC2CCCCC2)nc1", "note": "[2-cyclohexylamino-5-(2,6-dimethylphenylcarbonylamino) pyridine]", "pIC50": "> 4.82"}
{"compound": "O=C(Nc1ccc(OC2CCCCC2)nc1)c1c(Cl)cccc1Cl", "note": "[2-cyclohexyloxy-5-(2,6-dichlorophenylcarbonylamino) pyridine]", "pIC50": "> 4.82"}
{"compound": "Cc1cccc(C)c1C(=O)Nc1ccc(OC2CCCCC2)nc1", "note": "[2-cyclohexyloxy-5-(2,6-dimethylphenylcarbonylamino) pyridine]", "pIC50": "> 4.82"}
{"compound": "O=C(Nc1ccc(OC2CCCCC2)nc1)c1ccccc1Cl", "note": "[2-cyclohexyloxy-5-(2-chlorophenylcarbonylamino)pyridine]", "pIC50": "> 4.82"}
{"compound": "Cc1ccccc1C(=O)Nc1ccc(OC2CCCCC2)nc1", "note": "[2-cyclohexyloxy-5-(2-methylphenylcarbonylamino)pyridine]", "pIC50": "> 4.82"}
{"test_system": "Cyclooxygenase enzyme (COX-1 and COX-2)", "assay": "Cyclooxygenase Enzyme Activity Assay (isoform not stated for the result)", "format": "cell-based, human", "settings": "COX-1 (THP-1) / COX-2 (HOSC) cell assays, PGE2 ELISA", "procedure": "Cyclooxygenase Enzyme Activity Assay\nThe human monocytic leukemia cell line, THP-1, differentiated by exposure to phorbol esters expresses only COX-1; the human osteosarcoma cell line 143B expresses predominantly COX-2. THP-1 cells are routinely cultured in RPMI complete media supplemented with 10% FBS and human osteosarcoma cells (HOSC) are cultured in minimal essential media supplemented with 10% fetal bovine serum (MEM-10%FBS); all cell incubations are at 37° C. in a humidified environment containing 5% CO2.\nIn preparation for the COX-1 assay, THP-1 cells are grown to confluency, split 1:3 into RPMI containing 2% FBS and […] phorbol 12-myristate 13-acetate (TPA), and incubated for 48 hours on a shaker to prevent attachment. […] Arachidonic acid is added to a final concentration of […], the cells incubated for 20 minutes at 37° C., and enzyme activity determined as described below. […]\nAfter incubation with arachidonic acid, the reactions are stopped by the addition of 1 N HCl, followed by neutralization with 1 N NaOH and centrifugation to pellet cell debris. Cyclooxygenase enzyme activity in both HOSC and THP-1 cell supernatants is determined by measuring the concentration of PGE2 using a commercially available ELISA (Neogen #404110). […]"}
{"compound": "Cc1ccc(Nc2ccc(NC(=O)c3c(Cl)cccc3Cl)cn2)c(C)c1", "note": "[2-(2,4-dimethylphenylamino)-5-(2,6-dichlorophenylcarbonylamino)pyridine]", "pIC50": "≥ 5.00"}
